Patent US4839350A, “Cephalosporin compounds and the production thereof” (Meiji Seika Kaisha, Ltd., priority 1984, dated 1989)
Counter-ions that a name gives are not always drawn. Like-named read-outs stand apart in the source and are kept apart here.

Assays:
Assay type in all cases: cell-based
[1] = test system: Staphylococcus aureus 209P JC-1; experiment: MIC by agar-dilution method, Staphylococcus aureus 209P JC-1
Text: (§1) The compounds of this invention are all novel compounds.

Proteus mirabilis GN 79 = experiment: MIC by agar-dilution method, Proteus mirabilis GN 79
Text: as §1

Proteus rettgeri GN 624 = experiment: MIC by agar-dilution method, Proteus rettgeri GN 624
Text: as §1

[2] = test system: Salmonella typhimurium LT-2; experiment: MIC by agar-dilution method, Salmonella typhimurium LT-2
Text: as §1

[3] = test system: Klebsiella pneumoniae PCI 602; experiment: MIC by agar-dilution method, Klebsiella pneumoniae PCI 602
Text: as §1

Proteus vulgaris GN 76 = experiment: MIC by agar-dilution method, Proteus vulgaris GN 76
Text: as §1

[4] = test system: Escherichia coli NIHJ JC-2; experiment: MIC by agar-dilution method, Escherichia coli NIHJ JC-2
Text: as §1

[5] = test system: Serratia marcescens No. 1; experiment: MIC by agar-dilution method, Serratia marcescens No. 1
Text: as §1

[6] = test system: Staphylococcus aureus Smith; experiment: MIC by agar-dilution method, Staphylococcus aureus Smith
Text: as §1

[7] = test system: Pseudomonas aeruginosa MB 3833; experiment: MIC by agar-dilution method, Pseudomonas aeruginosa MB 3833
Text: as §1

[8] = Providencia rettgeri, GN624, read-out: MIC.
[9] = Salmonella enterica, read-out: MIC.

| Compound | MIC ([1]; read-out: MIC.) [µg/mL] | MIC (Proteus mirabilis GN 79; GN79, read-out: MIC.) [µg/mL] | MIC (Proteus rettgeri GN 624; [8]) [µg/mL] | MIC [2, 9] [µg/mL] | MIC ([3]; PCI602, read-out: MIC.) [µg/mL] | MIC (Proteus vulgaris GN 76; GN76, read-out: MIC.) [µg/mL] | MIC ([4]; NIHJJC2, read-out: MIC.) [µg/mL] | MIC ([5]; read-out: MIC.) [µg/mL] | MIC ([6]; read-out: MIC.) [µg/mL] | MIC ([7]; MB3833, read-out: MIC.) [µg/mL] | MIC [1] [µg/mL] | MIC (Proteus mirabilis GN 79) [µg/mL] | MIC (Proteus rettgeri GN 624) [µg/mL] | MIC [2] [µg/mL] | MIC [3] [µg/mL] | MIC (Proteus vulgaris GN 76) [µg/mL] | MIC [4] [µg/mL] | MIC [5] [µg/mL] | MIC [6] [µg/mL] | MIC [7] [µg/mL] |
| --- | --- | --- | --- | --- | --- | --- | --- | --- | --- | --- | --- | --- | --- | --- | --- | --- | --- | --- | --- | --- |
| CO/N=C(\C(=O)NC1C(=O)N2C(C(=O)O)=C(C=Cc3ccccc3F)CSC12)c1csc(N)n1 (mixture of isomers) [Example 14, 7-[2-methoxyimino-2-(2-aminothiazol-4-yl)acetamido]-3-[2-(o-fluorophenyl)vinyl]-3-cephem-4-carboxylic acid trifluoroacetate (syn-isomer, mixed cis- and trans-isomers)] | 0.2 | 0.2 | 1.56 | 3.13 | 3.13 | 0.2 | 3.13 | 1.56 | 0.39 | > 50 |  |  |  |  |  |  |  |  |  |  |
| Cc1ncsc1C=CC1=C(C(=O)O)N2C(=O)C(NC(=O)C(=NOCC(=O)O)c3csc(N)n3)C2SC1.O=C(O)C(F)(F)F (single isomer, unassigned) [Example 16, 7-[2-carboxymethoxyimino-2-(2-aminothiazol-4-yl)acetamido]-3-[2-(4-methylthiazol-5yl)vinyl]-3-cephem-4-carboxylic acid trifluoroacetate (syn-isomer, trans-isomer)] |  |  |  |  |  |  |  |  |  |  | 3.13 | 0.05 | 1.56 | 0.10 | 0.20 | ≤ 0.025 | 0.39 | 0.05 | 3.13 | 12.5 |
| CO/N=C(\C(=O)NC1C(=O)N2C(C(=O)O)=C(/C=C\c3scnc3C)CSC12)c1csc(N)n1 (stereo not drawn) [Example 10, 7-[2-methoxyimino-2-(2-aminothiazol-4-yl)acetamido]-3-[2-(4-methylthiazol-5-yl)vinyl]-3-cephem-4-carboxylic acid trifluoroacetate (cyn-isomer, cis-isomer)] | 0.2 | 0.39 | 3.13 | 0.39 | 0.39 | 0.2 | 0.39 | 0.39 | 0.39 | 25 |  |  |  |  |  |  |  |  |  |  |
| CO/N=C(\C(=O)NC1C(=O)N2C(C(=O)O)=C(/C=C\c3ccccc3)CSC12)c1csc(N)n1 (stereo not drawn) [Example 11, 7-[2-methoxyimino-2-(2-aminothiazol-4-yl)acetamido]-3-(2-phenylvinyl)-3-cephem-4-carboxylic acid trifluoroacetate (cyn-isomer, cis-isomer)] | 0.78 | 0.78 | 3.13 | 6.25 | 3.13 | 0.78 | 3.13 | 1.56 | 0.78 | > 50 |  |  |  |  |  |  |  |  |  |  |
| CO/N=C(\C(=O)NC1C(=O)N2C(C(=O)O)=C(/C=C\c3ccco3)CSC12)c1csc(N)n1 (stereo not drawn) [Example 12, 7-[2-methoxyimino-2-(2-aminothiazol-4-yl)acetamido]-3-[2-(2-furyl)vinyl]-3-cephem-4-carboxylic acid sodium salt (cyn-isomer, cis-isomer)] | 0.39 | 0.78 | 3.13 | 1.56 | 1.56 | 0.39 | 3.13 | 1.56 | 0.78 | > 50 |  |  |  |  |  |  |  |  |  |  |
| CO/N=C(\C(=O)NC1C(=O)N2C(C(=O)O)=C(/C=C/c3ccc([N+](=O)[O-])o3)CSC12)c1csc(N)n1 (stereo not drawn) [Example 13, 7-[2-methoxyimino-2-(2-aminothiazol-4-yl)acetamido]-3-[2-(5-nitor-2-furyl)vinyl]-3-cephem-4-carboxylic acid sodium salt (syn-isomer, trans-isomer)] | 6.25 | 12.5 | 3.13 | 6.25 | 3.13 | 3.13 | 6.25 | 6.25 | 6.25 | > 50 |  |  |  |  |  |  |  |  |  |  |
| CO/N=C(\C(=O)NC1C(=O)N2C(C(=O)O)=C(C=Cc3sc[n+](C)c3C)CSC12)c1csc(N)n1 (stereo not drawn) [Example 15, 7-[2-methoxyimino-2-(2-aminothiazol-4-yl)acetamido]-3-[2-(3,4-dimethyl-5-thiazolio)vinyl]-3-cephem-4-carboxylic acid di-trifluoroacetate (syn-isomer)] | 0.78 | 0.78 | 0.39 | 0.1 | 0.1 | 0.39 | 0.1 | 0.1 | 0.78 | > 50 |  |  |  |  |  |  |  |  |  |  |
| CO/N=C(\C(=O)NC1C(=O)N2C(C(=O)O)=C(/C=C/c3scnc3C)CSC12)c1csc(N)n1 (stereo not drawn) [Example 18, 7-[2-methoxyimino-2-(2-aminothiazol-4-yl)acetamido-3-[2-(4-methylthiazol-5-yl)vinyl]-3cephem-4-carboxylic acid sodium salt (syn-isomer, trans-isomer)] | 0.39 |  | 0.39 | 0.78 | 0.39 | 0.1 | 0.78 | 0.39 | 0.39 | 50 |  |  |  |  |  |  |  |  |  |  |
| CO/N=C(\C(=O)NC1C(=O)N2C(C(=O)O)=C(/C=C\c3scnc3Cl)CSC12)c1csc(N)n1 (stereo not drawn) [Example 21, 7-[2-methoxyimino-2-(2-aminothiazol-4-yl)acetamido]-3-[2-(4-chlorothiazol-5-yl)vinyl]-3-cephem-4-carboxylic acid (syn-isomer, cis-isomer) sodium salt] | 0.1 | 0.2 | 1.56 | 0.2 | 0.1 | 0.1 | 0.2 | 0.2 | 0.2 | 12.5 |  |  |  |  |  |  |  |  |  |  |
| CO/N=C(\C(=O)NC1C(=O)N2C(C(=O)O)=C(/C=C/c3cnc(C)s3)CSC12)c1csc(N)n1 (stereo not drawn) [Example 30, 7-[2-methoxyimino-2-(2-aminothiazol-4-yl)acetamido]-3-[2-(2-methylthiazol-5-yl)vinyl]-3-cephem-4-carboxylic acid trifluoroacetate (syn-isomer, trans-isomer)] | 0.78 | 0.2 | 0.2 | 0.39 | 0.78 | 0.1 | 0.78 | 0.2 | 1.56 | > 50 |  |  |  |  |  |  |  |  |  |  |
| CO/N=C(\C(=O)NC1C(=O)N2C(C(=O)O)=C(/C=C\c3cnc(C)s3)CSC12)c1csc(N)n1 (stereo not drawn) [Example 31, 7-[2-methoxyimino-2-(2-aminothiazol-4-yl)acetamido]-3-[2-(2-methylthiazol-5-yl)vinyl]-3-cephem-4-carboxylic acid trifluoroacetate (syn-isomer, cis-isomer)] | 0.78 | 0.78 | 0.78 | 1.56 | 1.56 | 0.2 | 1.56 | 0.78 | 1.56 | > 50 |  |  |  |  |  |  |  |  |  |  |
| CO/N=C(\C(=O)NC1C(=O)N2C(C(=O)O)=C(/C=C\c3cscn3)CSC12)c1csc(N)n1 (stereo not drawn) [Example 32, 7-[2-methoxyimino-2-(2-aminothiazol-4-yl)acetamido]-3-[2-(thiazol-4-yl)vinyl]-3-cephem-4-carboxylic acid sodium salt (syn-isomer, cis-isomer)] | 0.39 |  | 6.25 | 0.78 | 1.56 | 0.1 | 1.56 | 0.78 | 0.78 | 100 |  |  |  |  |  |  |  |  |  |  |
| CO/N=C(\C(=O)NC1C(=O)N2C(C(=O)O)=C(/C=C\c3cncs3)CSC12)c1csc(N)n1 (stereo not drawn) [Example 33, 7-[2-methoxyimino-2-(2-aminothiazol-4-yl)acetamido]-3-[2-(thiazol-5-yl)vinyl]-3-cephem-4-carboxylic acid sodium salt (syn-isomer, cis-isomer)] | 0.39 | 0.39 | 0.78 | 0.39 | 0.2 | 0.1 | 0.39 | 0.39 | 0.39 | 25 |  |  |  |  |  |  |  |  |  |  |
| CO/N=C(\C(=O)NC1C(=O)N2C(C(=O)O)=C(/C=C\c3sc(Cl)nc3Cl)CSC12)c1csc(N)n1 (stereo not drawn) [Example 34, 7-[2-methoxyimino-2-(2-aminothiazol-4-yl)acetamido]-3-[2-(2,4-dichlorothiazol-5-yl)vinyl]-3-cephem-4-carboxylic acid sodium salt (syn-isomer, cis-isomer)] | 0.2 | 0.78 | 1.56 | 3.13 | 3.13 | 1.56 | 3.13 | 1.56 | 0.2 | 100 |  |  |  |  |  |  |  |  |  |  |
